Reference: PubChem BioAssay (NCI)
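Results reflect a 48-hour exposure of cells in 96-well plates to compound at five concentrations. GI50 is the concentration that inhibits growth by half. TGI denotes the concentration required for complete inhibition of growth.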

Columns and labels:
Assay in all cases: inhibition of tumour cell growth, NCI panel, 48 h; in the data active means GI50 below about 0.43 µM; inactive means the rest
[1] = tested on: OVCAR-3 ovarian
[2] = tested on: NCI-H460 lung
[3] = tested on: SF-268 CNS
[4] = tested on: SK-OV-3 ovarian
[5] = tested on: HCT-116 colon
[6] = tested on: LOX IMVI melanoma
[7] = tested on: OVCAR-4 ovarian
[8] = tested on: KM12 colon
[9] = tested on: HOP-62 NSCLC
[10] = tested on: BT-549 breast

N#CC(C#N)=C1NC(=O)C(c2ccccc2)C(=O)N1 (centres undefined)
> 100 µM: TGI [1] | TGI [2] | TGI [3] | TGI [4] | TGI [5] | TGI [6] | TGI [7] | TGI [8] | TGI [9]

O=S1(=O)CSc2ccc3ccccc3c2-c2c1ccc1ccccc21
> 100 µM: TGI [1] | TGI [2] | TGI [3] | TGI [5] | TGI [6] | TGI [7] | TGI [8] | TGI [9]

CC(C)(C)c1ccccc1NS(=O)(=O)c1ccccc1
> 100 µM: TGI [1] | TGI [2] | TGI [4] | TGI [5] | TGI [7] | TGI [8] | TGI [9]

Cc1cc2c(=O)cc(-c3ccc(Cl)cc3)oc2c(C(=O)O)c1C
> 100 µM: TGI [1] | TGI [2] | TGI [3] | TGI [4] | TGI [5] | TGI [6] | TGI [7] | TGI [8]

Cn1cccc1-c1cc(-c2ccc(Br)cc2)nc(N)c1C#N
inactive: GI50 [1] > 100 µM | GI50 [2] > 100 µM | GI50 [3] > 100 µM | GI50 [4] > 100 µM | GI50 [5] > 100 µM | GI50 [6] > 100 µM | GI50 [10] 69.7 µM | GI50 [7] 77.2 µM | GI50 [8] > 100 µM
> 100 µM: TGI [1] | TGI [2] | TGI [3] | TGI [4] | TGI [5] | TGI [6] | TGI [10] | TGI [7] | TGI [8]

O=C(/C=C/c1ccccc1F)C(c1ccccc1)c1ccccc1
3.2 µM: TGI [6]
8.47 µM: TGI [4]
6.4 µM: TGI [5]
15.2 µM: TGI [1]
11.3 µM: TGI [3]
15 µM: TGI [8]

O=C(NC(=S)NS(=O)(=O)c1ccc(N2N=C3c4ccccc4CC3C2c2cccs2)cc1)c1ccccc1 (centres undefined)
> 100 µM: TGI [1] | TGI [2] | TGI [3] | TGI [4] | TGI [10] | TGI [7]
31.7 µM: TGI [6]
inactive: GI50 [1] 30.6 µM | GI50 [2] > 100 µM | GI50 [3] > 100 µM | GI50 [4] 90.8 µM | GI50 [6] 15.2 µM | GI50 [10] 21.6 µM | GI50 [7] 87.6 µM | GI50 [8] 28.2 µM
91.8 µM: TGI [8]

CCOC(=O)C(=Cc1ccccc1Br)C(=O)OCC
7.07 µM: TGI [10]
29.1 µM: TGI [3]
4.7 µM: TGI [1]
4.06 µM: TGI [8]
16.5 µM: TGI [7]
> 100 µM: TGI [2] | TGI [5] | TGI [9]

CCCCCCCCCCCCC(Br)C(=O)SCCNC(=O)CCNC(=O)[C@@H](O)C(C)(C)COP(=O)(O)OP(=O)(O)OCC1OC(n2cnc3c(N)ncnc32)C(O)C1OP(=O)(O)O (some centres undefined)
> 56.5 µM: TGI [1] | TGI [2] | TGI [3] | TGI [4] | TGI [5] | TGI [6] | TGI [7] | TGI [8] | TGI [9]

COc1ccccc1NC(=O)C1=C(C)NC(C)=C(C(=O)Nc2ccccc2OC)C1c1ccc(C(C)C)cc1
> 100 µM: TGI [1] | TGI [2] | TGI [3] | TGI [4] | TGI [5] | TGI [6] | TGI [7] | TGI [8] | TGI [9]

COc1ccc2c(CNCCCCO)cc3cc4c(cc3c2c1)OCO4
11.9 µM: TGI [10]
23.8 µM: TGI [4]
10.6 µM: TGI [9]
5.37 µM: TGI [6]
4.95 µM: TGI [1]
7.33 µM: TGI [8]
9.5 µM: TGI [5]
7.54 µM: TGI [7]
active: GI50 [3] 0.151 µM
1.15 µM: TGI [3]
inactive: GI50 [1] 0.984 µM | GI50 [4] 4.2 µM | GI50 [5] 0.609 µM | GI50 [6] 1.25 µM | GI50 [10] 3.83 µM | GI50 [7] 2.31 µM | GI50 [8] 1.83 µM | GI50 [9] 1.98 µM

Cc1nc2cc(O)c(O)cc2cc1Oc1ccc(NC(=O)Nc2ccc(Cl)c(Cl)c2)cc1
32 µM: TGI [8]
> 32.5 µM: TGI [3] | TGI [4] | TGI [10] | TGI [7] | TGI [9]
inactive: GI50 [1] 8.52 µM | GI50 [2] 6.95 µM | GI50 [3] 8.45 µM | GI50 [4] 11.7 µM | GI50 [5] 2.24 µM | GI50 [10] 7.5 µM | GI50 [7] 9.73 µM | GI50 [8] 9.64 µM | GI50 [9] 8.62 µM
13.6 µM: TGI [5]
19.9 µM: TGI [1]
15.8 µM: TGI [2]

CCN1C(=O)N(c2c(F)c(OC)cc(OC)c2F)Cc2cnc3[nH]c(CN4CCOCC4)cc3c21
19.4 µM: TGI [5]
> 100 µM: TGI [1] | TGI [2] | TGI [3] | TGI [6] | TGI [7] | TGI [8] | TGI [9]
15.7 µM: TGI [10]
active: GI50 [10] 0.0491 µM
inactive: GI50 [1] 5.73 µM | GI50 [2] 1.86 µM | GI50 [3] 2.19 µM | GI50 [5] 1.84 µM | GI50 [6] 2.37 µM | GI50 [7] 1.69 µM | GI50 [8] 5.08 µM | GI50 [9] 2.35 µM

COc1nc2c(nc(N)n2C2OC(CO)C(O)C(O)C2O)c(=O)n1C (centres undefined)
> 100 µM: TGI [1] | TGI [2] | TGI [3] | TGI [4] | TGI [5] | TGI [6] | TGI [7] | TGI [8] | TGI [9]

O=c1c2ccccc2nc(-c2ccc(Cl)cc2)n1O
91.2 µM: TGI [9]
> 100 µM: TGI [1] | TGI [2] | TGI [3] | TGI [4] | TGI [5] | TGI [10] | TGI [7] | TGI [8]

CC(C)(C)c1cc(C(O)(C(F)(F)F)C(F)(F)F)c2c(c1)C(C(F)(F)F)(C(F)(F)F)OC(c1ccccc1)(C(C)(C)C)N2 (centres undefined)
13.2 µM: TGI [5]
7.39 µM: TGI [4]
17.6 µM: TGI [8]
11.7 µM: TGI [2]
12.4 µM: TGI [1]
46.3 µM: TGI [7]

COC(=O)/C(C#N)=C1\N=NNN1CCCc1ccccc1
> 100 µM: TGI [1] | TGI [2] | TGI [4] | TGI [5] | TGI [6] | TGI [8]

CC1=C(C(=O)Nc2ccc(F)c(Cl)c2)C(c2cccc(Cl)c2)NC(=O)N1 (centres undefined)
35 µM: TGI [9]
44.6 µM: TGI [4]
inactive: GI50 [1] 19.5 µM | GI50 [2] 16.4 µM | GI50 [3] 17.2 µM | GI50 [4] 19.1 µM | GI50 [5] 14.7 µM | GI50 [6] 16.9 µM | GI50 [10] 19 µM | GI50 [8] 20.6 µM | GI50 [9] 17.5 µM
27.9 µM: TGI [5]
42 µM: TGI [10]
34 µM: TGI [2]
39.4 µM: TGI [3]
38.7 µM: TGI [8]
56.2 µM: TGI [1]
31.6 µM: TGI [6]

O=C1C(c2ccccc2)=C(c2ccccc2)C(c2ccccc2)/C1=C1\C(=O)C(c2ccccc2)=C(c2ccccc2)C1c1ccccc1 (centres undefined)
> 100 µM: TGI [1] | TGI [2] | TGI [3] | TGI [4] | TGI [5] | TGI [6] | TGI [7] | TGI [8] | TGI [9]
